In ChEMBL document CHEMBL6114969, “Ultra-short lipopeptides containing d-amino acid exhibiting excellent stability and antibacterial activity against gram-positive bacteria” (Eur J Med Chem, 2025):
Calls of active or inactive are those of the source. The calls are words filed in the database; no cut-off is given here.

Legend:
[1] = Toxicity in Balb/c mouse assessed as change in liver co-efficient at 20 to 80 mg/kg, ip measured after 7 days; assay type: organism-based; details: in vivo, 168 h, dose 20-80 mg/kg, time 7 day
Staphylococcus aureus [2] = test: Antibacterial activity against methicillin-resistant Staphylococcus aureus ATCC 33591 incubated for 18 to 24 hrs in presence of 1 mg/ml of chymotrypsin by broth microdilution method; assay type: functional; details: time 18-24 hrs
Staphylococcus aureus [3] = test: Antibacterial activity against methicillin-resistant Staphylococcus aureus ATCC 33591 infected in Balb/c mouse model of skin wound infection assessed as reduction in TNF-alpha activity in skin at 10 mg/kg, ip administered thrice at 1, 24 and 48 hrs post-infection measured after 14 days in presence of polymyxin B by IHC analysis; assay type: functional, organism-based; details: time 14.0 day
[4] = Toxicity in Balb/c mouse assessed as kidney pigmentation at 80 mg/kg, ip measured after 7 days; assay type: organism-based; details: in vivo, 168 h, time 7 day
Staphylococcus aureus [5] = test: Induction of morphological changes in methicillin-resistant Staphylococcus aureus ATCC 33591 assessed as irregular atrophy at 2 times MIC incubated for 2 hrs by SEM analysis; assay type: functional, organism-based
[6] = Toxicity in Balb/c mouse assessed as change in spleen co-efficient at 20 to 80 mg/kg, ip measured after 7 days; assay type: organism-based; details: in vivo, 168 h, dose 20-80 mg/kg, time 7 day
Staphylococcus aureus [7] = test: Antibacterial activity against methicillin-resistant Staphylococcus aureus ATCC 33591 infected in Balb/c mouse model of acute systemic infection assessed as reduction in bacterial count in spleen at 10 mg/kg, ip measured after 5 days; assay type: functional, organism-based; details: time 5.0 day
Staphylococcus aureus [8] = test: Antibacterial activity against methicillin-resistant Staphylococcus aureus ATCC 33591 infected in Balb/c mouse model of pneumonia infection assessed as reduction in IL-1beta activity in lung at 10 mg/kg, ip administered thrice at 4, 8 and 12 hrs post-infection measured after 24 hrs post-infection by IHC analysis; assay type: functional, organism-based; details: time 20.0 hrs
[9] = Toxicity in Balb/c mouse assessed as survival rate at 20 mg/kg, ip measured after 7 days; assay type: organism-based; details: in vivo, time 7 day
Staphylococcus aureus [10] = test: Induction of morphological changes in methicillin-resistant Staphylococcus aureus ATCC 33591 assessed as large area membrane melting at 4 times MIC incubated for 2 hrs by SEM analysis; assay type: functional, organism-based
Staphylococcus aureus [11] = test: Antibacterial activity against methicillin-resistant Staphylococcus aureus ATCC 33591 incubated for 18 to 24 hrs in presence of 0.5 mg/ml of pepsin by broth microdilution method; assay type: functional; details: time 18-24 hrs
Staphylococcus aureus [12] = test: Synergistic bactericidal activity against persistent methicillin-resistant Staphylococcus aureus ATCC 33591 at high concentration incubated for 18 to 24 hrs in presence of gentamycin by time-kill assay; assay type: functional, organism-based; details: time 18-24 hrs
Staphylococcus aureus [13] = test: Antibacterial activity against methicillin-resistant Staphylococcus aureus ATCC 33591 infected in Balb/c mouse model of skin wound infection assessed as reduction in TNF-alpha activity in skin at 10 mg/kg, ip administered thrice at 1, 24 and 48 hrs post-infection measured after 14 days by IHC analysis; assay type: functional, organism-based; details: time 14.0 day
Staphylococcus aureus [14] = test: Destruction of cell membrane in methicillin-resistant Staphylococcus aureus ATCC 33591 measured upto 360 mins by absorbance based assay; assay type: functional, organism-based
Staphylococcus aureus [15] = test: Induction of drug resistance in methicillin-resistant Staphylococcus aureus ATCC 33591 at sub-MIC measured after 15 passages; assay type: functional, organism-based
Staphylococcus aureus [16] = test: Antibacterial activity against methicillin-resistant Staphylococcus aureus ATCC 33591 infected in Balb/c mouse model of skin wound infection assessed as reduction in bacterial load in skin at 10 mg/kg, ip administered thrice at 1, 24 and 48 hrs post-infection measured after 72 hrs post-infection in presence of polymyxin B; assay type: functional, organism-based; details: time 71.0 hrs
Staphylococcus aureus [17] = test: Antibacterial activity against methicillin-resistant Staphylococcus aureus ATCC 33591 assessed as fold change in MIC incubated for 18 to 24 hrs in presence of NaCl by broth microdilution method; assay type: functional; details: time 18-24 hrs
[18] = Toxicity in Balb/c mouse assessed as cell swelling in liver at 80 mg/kg, ip measured after 7 days by H and E staining based analysis; assay type: organism-based; details: in vivo, 168 h, time 7 day
Staphylococcus aureus [19] = test: Additive bactericidal activity against methicillin-resistant Staphylococcus aureus ATCC 33591 incubated for 18 to 24 hrs in presence of ciprofloxacin by time-kill assay; assay type: functional, organism-based; details: time 18-24 hrs
Staphylococcus aureus [20] = test: Antibacterial activity against methicillin-resistant Staphylococcus aureus ATCC 33591 assessed as fold change in MIC incubated for 18 to 24 hrs in presence of MgCl2 by broth microdilution method; assay type: functional; details: time 18-24 hrs
Staphylococcus aureus [21] = test: Induction of morphological changes in methicillin-resistant Staphylococcus aureus ATCC 33591 assessed as content leakage at 4 times MIC incubated for 2 hrs by SEM analysis; assay type: functional, organism-based
Mus musculus = test: In vivo inhibition of inflammation in Balb/c mouse model of acute systemic infection infected with methicillin-resistant Staphylococcus aureus ATCC 33591 assessed as reduction in IL-1beta activity at 10 mg/kg, ip measured after 5 days; assay type: functional, organism-based; details: time 5.0 day
DNA = test: Binding affinity to genomic DNA in methicillin-resistant Staphylococcus aureus ATCC 33591 at 1 to 8 times MIC; assay type: nucleic-acid assay
Staphylococcus aureus [22] = test: Bactericidal activity against methicillin-resistant Staphylococcus aureus ATCC 33591 at 4 times MIC incubated for 24 hrs in presence of 4 ug/ml LPS by absorbance based assay; assay type: functional, organism-based
Staphylococcus aureus [23] = test: Antibacterial activity against methicillin-resistant Staphylococcus aureus ATCC 33591 assessed as fold change in MIC incubated for 18 to 24 hrs in presence of 10 percent mouse serum by broth microdilution method; assay type: functional; details: time 18-24 hrs
Staphylococcus aureus [24] = test: Destruction of cell membrane in methicillin-resistant Staphylococcus aureus ATCC 33591 at 2 to 8 times MIC by absorbance based assay; assay type: functional, organism-based; details: time <= 360.0 min
[25] = Toxicity in Balb/c mouse assessed as change in kidney co-efficient at 20 to 80 mg/kg, ip measured after 7 days; assay type: organism-based; details: in vivo, 168 h, dose 20-80 mg/kg, time 7 day
Staphylococcus aureus [26] = test: Antibacterial activity against methicillin-resistant Staphylococcus aureus ATCC 33591 infected in Balb/c mouse model of pneumonia infection assessed as reduction in TNF-alpha activity in lung at 10 mg/kg, ip administered thrice at 4, 8 and 12 hrs post-infection measured after 24 hrs post-infection by IHC analysis; assay type: functional, organism-based; details: time 20.0 hrs
Staphylococcus aureus [27] = test: Antibacterial activity against methicillin-resistant Staphylococcus aureus ATCC 33591 infected in Balb/c mouse model of pneumonia infection assessed as reduction in alveolar contraction in lung at 10 mg/kg, ip administered thrice at 4, 8 and 12 hrs post-infection measured after 24 hrs post-infection by H and E staining based analysis; assay type: functional, organism-based
Staphylococcus aureus [28] = test: Elimination of biofilm generation of methicillin-resistant Staphylococcus aureus ATCC 33591 incubated for 24 hrs by MTT assay; assay type: functional, organism-based
Staphylococcus aureus [29] = test: Induction of ROS production in methicillin-resistant Staphylococcus aureus ATCC 33591 at 1 to 4 times MIC measured upto 360 mins by DCFH-DA dye based analysis; assay type: functional, organism-based
[30] = Toxicity in Balb/c mouse assessed as change in serum BUN level at 20 to 80 mg/kg, ip measured after 7 days; assay type: organism-based; details: in vivo, 168 h, dose 20-80 mg/kg, time 7 day
Staphylococcus aureus [31] = test: Induction of cell membrane damage in methicillin-resistant Staphylococcus aureus ATCC 33591 assessed as nucleic acid leakage at 2 to 8 times MIC measured upto 360 mins by absorbance based assay; assay type: functional, organism-based

## CCCCCCCCCCCC(=O)N[C@H](CCCNC(=N)N)C(=O)N[C@H](CCCNC(=N)N)C(=O)N[C@H](Cc1c[nH]c2ccccc12)C(=O)O
[1]
  Activity: Toxic
Staphylococcus aureus [2]
  MIC: 4 µM
Staphylococcus aureus [3]
  Activity: Active
[4]
  Activity: Toxic
Staphylococcus aureus [5]
  Activity: Active
[6]
  Activity: Non-toxic
Staphylococcus aureus [7]
  Activity: Active
Staphylococcus aureus [8]
  Activity: Active
[9]
  survival at 168 h: 62.5%
Staphylococcus aureus [10]
  Activity: Active
Staphylococcus aureus [11]
  MIC: 8 µM
Staphylococcus aureus [12]
  Activity: Active
Staphylococcus aureus [13]
  Activity: Active
Staphylococcus aureus [14]
  Activity: Dose-dependent-effect
Staphylococcus aureus [15]
  Activity: inactive
Staphylococcus aureus [16]
  Activity: Active
Staphylococcus aureus [17]
  fold change (FC): <3
[18]
  Activity: Toxic
Staphylococcus aureus [19]
  Activity: Active
Staphylococcus aureus [20]
  fold change (FC): <3
Staphylococcus aureus [21]
  Activity: Active
Mus musculus
  inhibition: Active
DNA
  Activity: Not active; Compound Exhibited Weak Affinity
Staphylococcus aureus [22]
  Activity: inactive
Staphylococcus aureus [23]
  fold change (FC): 8
Staphylococcus aureus [24]
  Activity: Time-dependent-effect
[25]
  Activity: Toxic
Staphylococcus aureus [26]
  Activity: Active
Staphylococcus aureus [27]
  Activity: Active
Staphylococcus aureus [28]
  Activity: Not active; Compound Activity Was Not Significant
Staphylococcus aureus [29]
  Activity: Active
[30]
  Activity: Non-toxic
Staphylococcus aureus [31]
  Activity: Active
